The CheMixHub viscosity set
Where “and” joins values, the source holds several entries; their conditions need not be identical. Identical values can stand only once.

Assay: xn = mol fraction of the nth substance listed

CC(=O)[O-].CCn1cc[n+](CC)c1 + O
viscosity [mPa·s], 100 kPa
Conditions | x2 = 0.09432 | x2 = 0.2079 | x2 = 0.3498 | x2 = 0.453 | x2 = 0.5329
298.15 K | 129.4 | 120.3 | 79.4 | 62.7 | 50.4
323.15 K | 38.2 | 36.6 | 26.3 | 21.5 | 17.9

CC[N+](CC)(CC)Cc1ccccc1.[Cl-] + O
viscosity [mPa·s], 100 kPa
Conditions | 298.15 K | 303.15 K | 308.15 K | 313.15 K | 318.15 K
x1 = 8e-05 | 0.8929 | 0.7989 | 0.7209 | 0.6322 | 0.5462
x1 = 0.0002 | 0.8948 | 0.8015 | 0.7259 | 0.6354 | 0.5509
x1 = 0.0004 | 0.8991 | 0.8041 | 0.7284 | 0.6358 | 0.552

CCn1ccnc1 + O
viscosity [mPa·s], 100 kPa
Conditions | 298.15 K | 308.15 K | 318.15 K
x1 = 0.05 | 1.48 | 1.16 | 0.94
x1 = 0.1007 | 2.04 | 1.56 | 1.23
x1 = 0.1995 | 2.99 | 2.21 | 1.7
x1 = 0.2988 | 3.68 | 2.67 | 2.03
x1 = 0.3937 | 4.05 | 2.92 | 2.19
x1 = 0.4933 | 4.05 | 2.93 | 2.21
x1 = 0.6011 | 3.84 | 2.81 | 2.14
x1 = 0.695 | 3.18 | 2.41 | 1.89
x1 = 0.7956 | 2.65 | 2.07 | 1.67
x1 = 0.89 | 2.27 | 1.82 | 1.5
x1 = 0.9542 | 2.05 | 1.67 | 1.39

NCCC(=O)O + O
viscosity [mPa·s], 100 kPa
Conditions | x1 = 0.000358 | x1 = 0.000542 | x1 = 0.00072 | x1 = 0.000808 | x1 = 0.00108 | x1 = 0.00126 | x1 = 0.00144 | x1 = 0.0018
293.15 K | 1.006 | 1.008 | 1.009 | 1.011 | 1.014 | 1.016 | 1.018 | 1.022
298.15 K | 0.894 | 0.894 | 0.896 | 0.898 | 0.901 | 0.902 | 0.905 | 0.908
303.15 K | 0.8 | 0.8 | 0.802 | 0.804 | 0.805 | 0.807 | 0.809 | 0.812
308.15 K | 0.721 | 0.721 | 0.723 | 0.725 | 0.725 | 0.728 | 0.729 | 0.732
313.15 K | 0.653 | 0.653 | 0.655 | 0.657 | 0.657 | 0.659 | 0.66 | 0.663

O=C([O-])CC(=O)[O-].[Na+].[Na+] + O
viscosity, 101 kPa
Conditions | x1 = 9e-05 | x1 = 0.00018 | x1 = 0.00027 | x1 = 0.00036
298.15 K | 0.8932 mPa·s and 0.8932 mPa·s | 0.8959 mPa·s and 0.8959 mPa·s | 0.8987 mPa·s and 0.8987 mPa·s | 0.9014 mPa·s and 0.9014 mPa·s
308.15 K | 0.7222 mPa·s and 0.7222 mPa·s | 0.7237 mPa·s and 0.7237 mPa·s | 0.7253 mPa·s and 0.7253 mPa·s | 0.7279 mPa·s and 0.7279 mPa·s
318.15 K | 0.598 mPa·s and 0.598 mPa·s | 0.6007 mPa·s and 0.6007 mPa·s | 0.6021 mPa·s and 0.6021 mPa·s | 0.6048 mPa·s and 0.6048 mPa·s

O=C([O-])CC(O)(CC(=O)[O-])C(=O)[O-].[K+].[K+].[K+] + O
viscosity [mPa·s], 101 kPa
Conditions | 293.15 K | 298.15 K | 303.15 K | 308.15 K
x1 = 0.0025 | 1.072 | 0.946 | 0.844 | 0.758
x1 = 0.0089 | 1.265 | 1.123 | 1.003 | 0.908
x1 = 0.0177 | 1.478 | 1.32 | 1.187 | 1.07

O=S(=O)([O-])[O-].[K+].[K+] + O
Conditions | viscosity
293.65 K, 100 kPa, x1 = 0.008033 | 1.089 mPa·s
294.15 K, 100 kPa, x1 = 0.005375 | 1.042 mPa·s
294.15 K, 100 kPa, x1 = 0.01069 | 1.109 mPa·s and 1.108 mPa·s
298.15 K, 100 kPa, x1 = 5e-05 | 0.8905 mPa·s
298.15 K, 100 kPa, x1 = 0.0001 | 0.891 mPa·s
298.15 K, 100 kPa, x1 = 0.00021 | 0.892 mPa·s
298.15 K, 100 kPa, x1 = 0.00031 | 0.893 mPa·s
298.15 K, 100 kPa, x1 = 0.00104 | 0.9247 mPa·s
298.15 K, 101 kPa, x1 = 0.00655 | 0.966 mPa·s
298.15 K, 101 kPa, x1 = 0.01242 | 1.039 mPa·s
303.15 K, 101 kPa, x1 = 0.01242 | 0.9548 mPa·s
308.15 K, 100 kPa, x1 = 5e-05 | 0.7195 mPa·s
308.15 K, 100 kPa, x1 = 0.0001 | 0.72 mPa·s
308.15 K, 100 kPa, x1 = 0.00021 | 0.721 mPa·s
308.15 K, 100 kPa, x1 = 0.00031 | 0.722 mPa·s
308.15 K, 100 kPa, x1 = 0.00104 | 0.7509 mPa·s
308.15 K, 101 kPa, x1 = 0.01242 | 0.8705 mPa·s
313.15 K, 101 kPa, x1 = 0.01242 | 0.7905 mPa·s
318.15 K, 101 kPa, x1 = 0.01242 | 0.7249 mPa·s
323.15 K, 101 kPa, x1 = 0.00318 | 0.576 mPa·s
323.15 K, 101 kPa, x1 = 0.00655 | 0.603 mPa·s
323.15 K, 101 kPa, x1 = 0.0113 | 0.645 mPa·s

O=[N+]([O-])[O-].[Ag+] + O
298.15 K, 101 kPa
Conditions | viscosity [mPa·s]
x1 = 0.02589 | 0.99
x1 = 0.05251 | 1.134
x1 = 0.09523 | 1.451
x1 = 0.1797 | 2.439

O=c1[nH]cc(F)c(=O)[nH]1 + O
298.15 K, 101.3 kPa
Conditions | viscosity [mPa·s]
x1 = 3.46e-05 | 0.8891
x1 = 9.06e-05 | 0.8892
x1 = 0.000191 | 0.8901
x1 = 0.000303 | 0.8905
x1 = 0.000519 | 0.8917
x1 = 0.000754 | 0.8926
x1 = 0.000864 | 0.8933
x1 = 0.00108 | 0.8946
